Laboratory results published in article PMC6733874, “Zebrafish behavioural profiling identifies GABA and serotonin receptor ligands related to sedation and paradoxical excitation” (Nature Communications, 2019).
“Also recorded” adds a separate entry of the source. Where two headings read alike, the source gives them in different places.

How the values were obtained:
zebrafish [1] = assay type: in vivo; settings: for rescue of behavioral phenotypes by pretreatment with the GABAAR antagonist PTX: violet light and eASR phenotypes, in words
[2] = test system: human GABAARs (α1β2 and α1β2γ2); assay type: cell-based
Description: To determine if these compounds targeted human GABAARs, we tested them in a fluorescent imaging plate reader (FLIPR) assay on HEK293 cells transfected with α1β2 and α1β2γ2 human GABAAR subtypes. […]. […] While some of the compounds appeared to function in this assay as negative allosteric modulators (NAMs), reductions in fluorescence were likely due to toxicity-induced cell loss (Fig. 2f, Supplementary Table 5).
We used the FLIPR system (Molecular Devices) to quantify GABA-evoked activity of human GABAARs. We chose a membrane potential dye (Molecular Devices) to measure changes in membrane potentials and stably transfected HEK293 cells that expressed α1, β2 and γ2. Since we observed an increase in GABA-evoked responses when transfected with γ2 transiently, we describe the cells as having a low level of γ-subunit expression, indicating heterogeneity of GABAAR compositions in the cell (α1β2 or α1β2γ2). To assay for direct agonists, fluorescence was subtracted pre- and post compound addition. To assay for PAMs, cells were treated with compound at 20 uM and then with 5 uM GABA.

zebrafish [3] = assay: Optovin-response suppression assay (pain-related); settings: in words; relative to concentrations that caused eASRs
Description: To determine if any of the hit compounds may be analgesic, we used optovin-induced motor activity as a potential analgesia-related assay.

zebrafish [4] = assay: Viability of anesthetic treated animals; assay type: in vivo; settings: for alive/total 10 min: 10 minutes post treatment; for alive/total 1 hour: 1 hour post treatment; for alive/total 5 hours: 5 hours post treatment
Experimental: (§1) Behavioral assays for pERK. Animals were treated with DMSO or drug for one hour then exposed to a low-volume acoustic stimulus every 10 seconds for 10 minutes. Optovin-treated animals were stimulated with violet light for one second every 10 seconds for 10 minutes. Videos were recorded to measure response to the stimulus and quantified by motion index (MI). Animals were immediately […]
High speed imaging. Digital video was recorded at 500-1000 frames per second using an Integrated Design Tools NX5-S1 digital camera. Assay duration was 500-1000 ms. Low amplitude tap stimuli was delivered as described above. Videos and still images were assembled using Fiji (imageJ) and […]
RNAscope. Zebrafish (6 dpf) were fixed using 10% normal buffered formaldehyde overnight at 4 °C, dehydrated in 100% methanol and stored at -20 °C until the assay was performed. Fluorescent in situ hybridization was performed using the RNAScope kit (Advanced Cell Diagnostics)4 with the following modifications: target retrieval was performed using 150 mM Tris pH 9.5 for 15 minutes at 70 °C, washes were performed using 0.2x SSCT (0.01% Tween-20, […], 0.3mM TriNa-citrate, pH7), samples were stored overnight after probe hybridization and 2x 5 minute washes in 5x SSC ([…], pH7) at room temperature before amplification and detection steps were performed the following day.
Viability. Animals were scored manually to determine viability after anesthetic treatments. 100 animals were scored per condition at 10 minutes, 1 hour and 5 hours post treatment. Strong heart rate was observed under a dissecting scope (Leica M-80) for our viability score. […]
rdkit function FingerprintMols package written for python. Tanimoto similarity function was used with a […]

zebrafish [5] = assay type: in vivo
Experimental: as §1, with “(MI).” for “(MI). Animals were immediately”

zebrafish [6] = assay: Cortisol detection assay; assay type: in vivo; settings: 7-day old larvae treated 1 h; in words
Experimental: Cortisol levels were measured in zebrafish. Briefly, 15, 7-day old larvae were treated with the indicated compounds for 1 h. Larvae were anesthetized in ice-cold egg water and then snap-froze in an ethanol/dry ice bath. Larvae were then homogenized in 100 μL of water. Cortisol was extracted from the homogenate with 1 mL of ethyl acetate, the resulting supernatant was collected and the solvent allowed to evaporate. Cortisol was dissolved in 0.2% bovine serum albumin (A7030, Sigma) and frozen at −20 °C. For cortisol ELISA experiments, 96-well plates (VWR International) were treated with cortisol antibody (P01-92-94M-P, EastCoast Bio; […] in PBS) for 16 h at 4 °C, washed, and blocked with 0.1% BSA in PBS. Cortisol samples and cortisol-HRP (P91-92-91H, EastCoast Bio) were incubated at room temperature for 2 h and washed extensively with PBS containing 0.05% Tween-20 (Invitrogen). Detection of HRP was performed using tetramethylbenzidine (TMB: 22166-1, Biomol) and Tetrabutylammonium borohydride (TBABH: 230170-10 G, Sigma). Reaction was stopped using 1 M H2SO4. Absorbance was read at 450 nm in an ELISA plate reader (SpectraMax MS, Molecular Devices).

[7] = larvae, low-volume acoustic stimulus
[8] = compound at 20 uM then 5 uM GABA, DMSO = 1
[9] = compound at 20 uM then 5 uM GABA, Positive/Negative

CC(=O)[C@H]1CC[C@H]2[C@@H]3CCC4=CC(=O)CC[C@]4(C)[C@H]3CC[C@]12C [progesterone]
enhanced acoustic startle response (eASR) phenotype, in words (zebrafish [1]; [7]): most potent compounds tested
Ave Norm FLIPR Score [2, 8]: 17.8
FLIPR Results [2, 9]: Positive

CC(C)c1ccc(NS(=O)(=O)c2ccc3c(c2)OCCO3)cc1 [compound 6212662]
Ave Norm FLIPR Score [2, 8]: -5.179
optovin response (optovin-induced motor activity) (zebrafish [3]): only reduced the optovin response at concentrations that also reduced eASRs

CCOc1ccccc1NS(=O)(=O)c1ccc(OC)c(Br)c1 [compound 6030006]
rescue of behavioral phenotypes by pretreatment with the GABAAR antagonist PTX (zebrafish [1]): partially rescued
Ave Norm FLIPR Score [2, 8]: 3.046

CC(C)c1cccc(C(C)C)c1O [propofol]
enhanced acoustic startle response (eASR) phenotype, in words (zebrafish [1]; zebrafish, in vivo): caused enhanced acoustic startle responses
Ave Norm FLIPR Score [2]: 34.52
FLIPR Results [2]: Positive
GABAAR PAM activity in FLIPR, in words [2]: increased fluorescence in the presence of GABA
alive/total 10 min (zebrafish [4]; 3 µM): 100/100
alive/total 1 hour (zebrafish [4]; 3 µM): 100/100
alive/total 5 hours (zebrafish [4]; 3 µM): 100/100
alive/total 10 min (zebrafish [4]; 6 µM): 100/100
alive/total 1 hour (zebrafish [4]; 6 µM): 100/100
alive/total 5 hours (zebrafish [4]; 6 µM): 100/100
alive/total 10 min (zebrafish [4]; 12 µM): 100/100
alive/total 1 hour (zebrafish [4]; 12 µM): 100/100
alive/total 5 hours (zebrafish [4]; 12 µM): 99/100
toxicity at the concentrations that caused eASRs (zebrafish [4]; zebrafish, in vivo): Neither etomidate or propofol was toxic
pERK labeling (neuronal activity) (zebrafish [5]; zebrafish, in vivo): broadly reduced

COc1ccc(OC)c(NS(=O)(=O)c2ccc(OC)c(Br)c2)c1 [compound 6029941]
rescue of behavioral phenotypes by pretreatment with the GABAAR antagonist PTX (zebrafish [1]): partially rescued
Ave Norm FLIPR Score [2, 8]: 14.01
FLIPR Results [2, 9]: Positive
cortisol levels (zebrafish [6]): None of these compounds reduced cortisol levels

C[C@]12CC[C@H]3[C@@H](CCC4=CC(=O)CC[C@@]43C)[C@@H]1CC[C@@H]2C(=O)CO [DOC, 11-deoxycorticosterone]
enhanced acoustic startle response (eASR) phenotype, in words (zebrafish [1]; [7]): most potent compounds tested
Ave Norm FLIPR Score [2, 8]: -4.308

CCOC(=O)c1cccn1[C@H](C)c1ccccc1 [carboetomidate]
phenoscore category (zebrafish [1]; average phenoscore at highest scoring treatment): intermediate (intermediate phenoscores (0.51 < x < 0.71))
enhanced acoustic startle response (eASR) phenotype, in words (zebrafish [1]; [7]): immobilized zebrafish and caused eASRs
cortisol levels (zebrafish [6]): did not

CCCCn1c2ccccc2n2c(C(=O)OCC)c(C)nc12 [compound 5658603]
rescue of behavioral phenotypes by pretreatment with the GABAAR antagonist PTX (zebrafish [1]): rescued
Ave Norm FLIPR Score [2, 8]: 55.24
FLIPR Results [2, 9]: Positive
optovin response (optovin-induced motor activity) (zebrafish [3]): did not suppress the optovin response

picrotoxin
Phenoscore (zebrafish [1]; zebrafish, in vivo): 0.03
Ave Norm FLIPR Score [2, 8]: -9.76
GABAAR PAM activity in FLIPR, in words ([2]; in the presence of GABA): PAM activity was not observed
pERK labeling (neuronal activity) (zebrafish [5]; in words): neuronal activity increased in the telencephalon but not in the hindbrain

CCOC(=O)c1c(C)nc(-c2ccccc2)nc1NC(=O)Cc1ccccc1 [compound 5951201]
cortisol levels (zebrafish [6]): None of these compounds reduced cortisol levels

CN1C(=O)CN=C(c2ccccc2)c2cc(Cl)ccc21 [diazepam]
enhanced acoustic startle response (eASR) phenotype, in words (zebrafish [1]; zebrafish, in vivo): produced eASRs that were relatively weak and inconsistent; also recorded: produced intermediate eASR phenotypes
Ave Norm FLIPR Score [2]: -10.9

COc1ccc(S(=O)(=O)NC2CCCC2)cc1Br [compound 6028165]
rescue of behavioral phenotypes by pretreatment with the GABAAR antagonist PTX (zebrafish [1]): partially rescued
Ave Norm FLIPR Score [2, 8]: 28.76
FLIPR Results [2, 9]: Positive
optovin response (optovin-induced motor activity) (zebrafish [3]): only reduced the optovin response at concentrations that also reduced eASRs

COc1ccccc1-c1coc2cc(OC(=O)c3cccs3)ccc2c1=O [compound 6645327]
Ave Norm FLIPR Score [2, 8]: -4.734

O=C(Cc1ccc(Cl)cc1)Nc1cccc(C(=O)c2ccccc2)c1 [compound 7100598]
Ave Norm FLIPR Score [2, 8]: 7.736
FLIPR Results [2, 9]: Positive

CCOC(=O)c1c(NC(=O)C2CCCC2)sc2c1CCCC2 [compound 7282929]
Ave Norm FLIPR Score [2, 8]: 17.15
FLIPR Results [2, 9]: Positive

Cc1ccc(Cl)cc1NC(=O)COc1c(C)cccc1C [compound 5942595]
rescue of behavioral phenotypes by pretreatment with the GABAAR antagonist PTX (zebrafish [1]): partially rescued
Ave Norm FLIPR Score [2, 8]: 84.91
FLIPR Results [2, 9]: Positive
GABAAR PAM activity in FLIPR, in words ([2]; in the presence of GABA): potentiated GABAARs significantly greater than positive controls; also recorded: significantly greater than the positive controls
optovin response (optovin-induced motor activity) (zebrafish [3]): blocked optovin-induced motor activity

CCOC(=O)c1c(C)n(Cc2ccco2)c2ccc(OC)cc12 [compound 7114005]
Ave Norm FLIPR Score [2, 8]: 15.23
FLIPR Results [2, 9]: Positive
optovin response (optovin-induced motor activity) (zebrafish [3]): blocked optovin-induced motor activity

COc1ccc(S(=O)(=O)N2CCC(C)CC2)cc1Br [compound 6366118]
Ave Norm FLIPR Score [2, 8]: 14.5
FLIPR Results [2, 9]: Positive

Nc1ccc(Oc2ccc(Cl)c3cccnc23)c(Cl)c1 [compound 5846886]
Ave Norm FLIPR Score [2, 8]: -5.255

COc1ccc2[nH]c(-c3ccccc3)c(CCN(C)C)c2c1 [BGC 20-761]
enhanced acoustic startle response (eASR) phenotype, in words (zebrafish [1]; [7]): reproducibly caused eASRs in vivo
rescue of behavioral phenotypes by pretreatment with the GABAAR antagonist PTX (zebrafish [1]): partially rescued
Phenoscore (zebrafish [1]; zebrafish, in vivo): 0.74
Ave Norm FLIPR Score [2, 8]: 1.189
GABAAR PAM activity in FLIPR, in words ([2]; in the presence of GABA): PAM activity was not observed
pERK labeling (neuronal activity) (zebrafish [5]; in words): reduced neuronal activity throughout most of the brain and increased activity in the caudal hindbrain neuron cluster
optovin response (optovin-induced motor activity) (zebrafish [3]): blocked the optovin response

CC(=O)/N=C(/Nc1cccc(C(F)(F)F)c1)Nc1nc(C)cc(C)n1 [compound 5869570]
Ave Norm FLIPR Score [2, 8]: 15.04
FLIPR Results [2, 9]: Positive

O=S(=O)(Nc1ccc(OCc2ccccc2)cc1)c1ccc2c(c1)OCCO2 [compound 6163607]
Ave Norm FLIPR Score [2, 8]: -5.679

O=C(Nc1c(C(=O)Nc2ccc(Cl)cc2)cnn1-c1ccccc1)c1ccco1 [compound 5583877]
Ave Norm FLIPR Score [2, 8]: 36.71
FLIPR Results [2, 9]: Positive

O=S(=O)(Nc1cccc(Br)c1)c1ccc2c(c1)OCCO2 [compound 6225936]
Ave Norm FLIPR Score [2, 8]: -14.7
cortisol levels (zebrafish [6]): None of these compounds reduced cortisol levels
optovin response (optovin-induced motor activity) (zebrafish [3]): only reduced the optovin response at concentrations that also reduced eASRs

Cc1cc(/C=C2/SC(=S)NC2=O)c(C)n1-c1cccnc1 [optovin]
pERK labeling (neuronal activity) (zebrafish [5]; in words): neuronal activity increased in many brain regions including the telencephalon and optic tectum but not in the hindbrain

Cc1cccc(OCCn2c(NC(=O)c3ccco3)nc3ccccc32)c1 [compound 7273455]
Ave Norm FLIPR Score [2, 8]: 7.892
FLIPR Results [2, 9]: Positive

COc1ccccc1N1CCN(C(=O)c2ccc(C(=O)c3c(C)cc(C)cc3C)cc2)CC1 [compound 6013263]
rescue of behavioral phenotypes by pretreatment with the GABAAR antagonist PTX (zebrafish [1]): partially rescued
Ave Norm FLIPR Score [2, 8]: 1.035
